The results in this text go back to patent publication US10266497B2 (ABIDE THERAPEUTICS, INC., priority 2017, dated 2019).

SMILES strings stand for the structures. Some results are limits rather than exact numbers.

For test [1], the target named is T1, MAGL (Homo sapiens, UniProt Q99685).
T1 sequence (Q99685 1-303): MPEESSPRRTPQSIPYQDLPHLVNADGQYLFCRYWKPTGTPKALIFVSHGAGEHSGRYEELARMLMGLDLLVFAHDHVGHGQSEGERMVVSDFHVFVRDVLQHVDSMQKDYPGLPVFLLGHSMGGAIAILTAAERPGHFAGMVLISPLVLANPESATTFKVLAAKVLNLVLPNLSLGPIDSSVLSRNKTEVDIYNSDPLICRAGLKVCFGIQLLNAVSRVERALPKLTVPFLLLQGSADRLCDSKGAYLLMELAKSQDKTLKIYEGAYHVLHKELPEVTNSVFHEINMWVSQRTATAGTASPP
Put plainly: In vitro competitive activity-based protein profiling, MAGL, human. As to conditions: for inhibition at 1 µM: read-out: MAGL % inh. 1 μM (human).

In test [2] the target is T2, MAGL (Mus musculus, UniProt O35678).
T2 sequence (O35678 1-303): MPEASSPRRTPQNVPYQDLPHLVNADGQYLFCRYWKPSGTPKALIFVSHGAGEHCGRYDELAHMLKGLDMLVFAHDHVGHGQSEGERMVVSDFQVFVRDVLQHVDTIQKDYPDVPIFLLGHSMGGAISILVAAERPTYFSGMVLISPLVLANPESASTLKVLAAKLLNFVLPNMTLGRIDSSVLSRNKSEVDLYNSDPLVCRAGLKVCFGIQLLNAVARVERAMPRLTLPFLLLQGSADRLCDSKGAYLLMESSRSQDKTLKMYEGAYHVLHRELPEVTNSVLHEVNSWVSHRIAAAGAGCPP
Put plainly: In vitro competitive activity-based protein profiling, MAGL, mouse. As to conditions: read-out: MAGL % inh. 1 μM (mouse).

`O=C(O)c1ccn(C(=O)N2CCN(Cc3cccc(Oc4ccnc(C(F)(F)F)c4)c3)CC2)n1` [Example 355, 1-(4-(3-((2-(trifluoromethyl)pyridin-4-yl)oxy)benzyl)piper-azine-1-carbonyl)-1H-pyrazole-3-carboxylic acid]: the inhibition at 1 µM in test [1] and in test [2] was above 75% throughout.

As for `O=C(O)c1nn(C(=O)N2CCN(Cc3ccc(N4CCCC4)cc3C(F)(F)F)CC2)cc1Cl` [Example 368, 4-chloro-1-(4-(4-(pyrrolidin-1-yl)-2-(trifluoromethyl)benzyl)piperazine-1-carbonyl)-1H-pyrazole-3-carboxylic acid], the inhibition at 1 µM in test [1] and in test [2] was above 75% throughout.

As for `C[C@H]1C[C@H](N(C)Cc2cccc(C(F)(F)F)c2)CCN1C(=O)n1ccc(C(N)=O)n1` [Example 259, 1-((2S,4R)-2-methyl-4-(methyl(3-(trifluoromethyl)benzyl)amino)piperidine-1-carbonyl)-1H-pyrazole-3-carboxamide], the inhibition at 1 µM in test [1] and in test [2] was above 75% throughout.

On to `O=C(O)c1ccn(C(=O)N2C[C@H]3C[C@H](Oc4cc(Cl)ccc4C(F)(F)F)C[C@H]3C2)n1` [Example 297, 1-(trans-5-(5-chloro-2-(trifluoromethyl)phenoxy)octahydro-cyclopenta[c]pyrrole-2-carbonyl)-1H-pyrazole-3-carboxylic acid], for which the inhibition at 1 µM in test [1] and in test [2] was above 75% in each case.

For the compound `C[C@@H]1CN(Cc2cccc(OCC(C)(C)O)c2Cl)CCN1C(=O)n1ccc(C(N)=O)n1` [Example 216, (R)-1-(4-(2-chloro-3-(2-hydroxy-2-methylpropoxy)benzyl)-2-methylpiperazine-1-carbonyl)-1H-pyrazole-3-carboxamide], the inhibition at 1 µM in test [1] and in test [2] was above 75% in each case.

In the case of `Cc1cc(-c2ccccc2)ccc1CN1CCN(C(=O)n2ccc(C(=O)O)n2)[C@@H](C)C1` [Example 246, (S)-1-(2-methyl-4-((3-methyl-[1,1′-biphenyl]-4-yl)methyl)piperazine-1-carbonyl)-1H-pyrazole-3-carboxylic acid], the half-maximal inhibitory concentration (IC50) in test [1] fell in the range of 100 to 1000 nM. In addition, the inhibition at 1 µM in test [1] and in test [2] was above 75% in each case.

Regarding `CN(Cc1ccc(C(F)(F)F)cc1N1CCC1)C1(C)CCN(C(=O)n2ccc(C(=O)O)n2)CC1` [Example 362, 1-(4-((2-(azetidin-1-yl)-4-(trifluoromethyl)benzyl)(methyl)amino)-4-methylpiperidine-1-carbonyl)-1H-pyrazole-3-carboxylic acid], the inhibition at 1 µM in test [1] and in test [2] was above 75% in each case.

Take `O=C(O)c1ccn(C(=O)N2CCN(Cc3ccc(N4CC5COCC5C4)cc3C(F)(F)F)CC2)n1` (stereo not shown) [Example 379, 1-(4-(4-(tetrahydro-1H-furo[3,4-c]pyrrol-5(3H)-yl)-2-(trifluoromethyl)benzyl)piperazine-1-carbonyl)-1H-pyrazole-3-carboxylic acid]: the inhibition at 1 µM in test [1] and in test [2] was above 75% in each case.

Consider `O=C(O)c1nn(C(=O)N2C[C@H]3C[C@H](OCc4cc(F)cc(Cl)c4)C[C@H]3C2)cc1Cl` [Example 296, 4-chloro-1-(trans-5-((3-chloro-5-fluorobenzyl)oxy)octahydrocyclopenta [c]pyrrole-2-carbonyl)-1H-pyrazole-3-carboxylic acid], for which the inhibition at 1 µM in test [1] and in test [2] was above 75% in each case.

For the compound `Cc1c(CO[C@H]2C[C@@H]3CN(C(=O)n4cc(Cl)c(C(=O)O)n4)C[C@@H]3C2)cccc1C(F)(F)F` [Example 341, 4-chloro-1-(trans-5-((2-methyl-3-(trifluoromethyl)benzyl)oxy)octa-hydrocyclopenta[c]pyrrole-2-carbonyl)-1H-pyrazole-3-carboxylic acid], the inhibition at 1 µM in test [1] and in test [2] was above 75% throughout.

Take `O=C(O)c1ccn(C(=O)N2C[C@H]3C[C@H](Oc4cccc(C(F)(F)F)c4)C[C@H]3C2)n1` [Example 231, 1-(trans-5-(3-(trifluoromethyl)phenoxy)octahydro-cyclopenta[c]pyrrole-2-carbonyl)-1H-pyrazole-3-carboxylic acid]: the inhibition at 1 µM in test [1] and in test [2] was above 75% each time.

For the compound `O=C(O)c1ccn(C(=O)N2C[C@H]3C[C@H](Oc4ccccc4C4CCOCC4)C[C@H]3C2)n1` [Example 268, 1-(trans-5-(2-(tetrahydro-2H-pyran-4-yl)phenoxy)octa-hydrocyclopenta[c]pyrrole-2-carbonyl)-1H-pyrazole-3-carboxylic acid], the inhibition at 1 µM in test [1] and in test [2] was above 75% throughout.

Take `O=C(O)c1ccn(C(=O)N2C[C@H]3C[C@H](Oc4cccc(C5CCCC5)c4)C[C@H]3C2)n1` [Example 232, 1-(trans-5-(3-cyclopentylphenoxy)octahydrocyclopenta [c]pyrrole-2-carbonyl)-1H-pyrazole-3-carboxylic acid]: the inhibition at 1 µM in test [1] and in test [2] was above 75% each time.

On to `O=C(O)c1nn(C(=O)N2CCN(Cc3cc(F)cc(Oc4ccc(Cl)cc4)c3)CC2)cc1Cl` [Example 378, 4-chloro-1-(4-(3-(4-chlorophenoxy)-5-fluorobenzyl)piper-azine-1-carbonyl)-1H-pyrazole-3-carboxylic acid], for which the inhibition at 1 µM in test [1] and in test [2] was above 75% each time.

For `O=C(O)c1ccn(C(=O)N2CCC3(CCN(Cc4cccc(-c5ccccc5)c4Cl)C3)CC2)n1` [Example 358, 1-(2-((2-chloro-[1,1′-biphenyl]-3-yl)methyl)-2,8-diazaspiro[4.5]decane-8-carbonyl)-1H-pyrazole-3-carboxylic acid], the inhibition at 1 µM in test [1] and in test [2] was above 75% throughout.

For the compound `O=C(O)c1ccn(C(=O)N2CCN(Cc3cc(F)cc(Oc4cccc(Cl)c4)c3)CC2)n1` [Example 321, 1-(4-(3-(3-chlorophenoxy)-5-fluorobenzyl)piper-azine-1-carbonyl)-1H-pyrazole-3-carboxylic acid], the inhibition at 1 µM in test [1] and in test [2] was above 75% each time.

Consider `O=C(O)c1ccn(C(=O)N2CCC3(CCCN3Cc3ccc(C(F)(F)F)cc3N3CC4COCC4C3)CC2)n1` (stereo not shown) [Example 415, 1-(1-(2-(tetrahydro-1H-furo[3,4-c]pyrrol-5(3H)-yl)-4-(trifluoromethyl)benzyl)-1,8-diazaspiro[4.5]decane-8-carbonyl)-1H-pyrazole-3-carboxylic acid], for which the inhibition at 1 µM in test [1] and in test [2] was above 75% each time.

With `O=C(O)c1ccn(C(=O)N2CCN(Cc3ccc(C(F)(F)F)cc3N3CC[C@H](O)C3)CC2)n1` [Example 332, (S)-1-(4-(2-(3-hydroxypyrrolidin-1-yl)-4-(trifluoromethyl)benzyl)piperazine-1-carbonyl)-1H-pyrazole-3-carboxylic acid], the inhibition at 1 µM in test [1] and in test [2] was above 75% in each case.

Regarding `NC(=O)c1ccn(C(=O)N2CCC3(CCN(Cc4cccc(C(F)(F)F)c4)C3)CC2)n1` [Example 284, 1-(2-(3-(trifluoromethyl)benzyl)-2,8-diazaspiro[4.5]decane-8-carbonyl)-1H-pyrazole-3-carboxamide], the inhibition at 1 µM in test [1] and in test [2] was above 75% throughout.

For `O=C(O)c1ccn(C(=O)N2C[C@H]3C[C@H](Oc4ccc(Cl)c(-c5nccs5)c4)C[C@H]3C2)n1` [Example 318, 1-(trans-5-(4-chloro-3-(thiazol-2-yl)phenoxy)octa-hydrocyclopenta[c]pyrrole-2-carbonyl)-1H-pyrazole-3-carboxylic acid], the inhibition at 1 µM in test [1] and in test [2] was above 75% throughout.

For the compound `NC(=O)c1ccn(C(=O)N2CC3CN(Cc4ccc(C5(O)CCOCC5)cc4C(F)(F)F)CC3C2)n1` (stereo not shown) [Example 396], the inhibition at 1 µM in test [1] and in test [2] was above 75% throughout.

With `C[C@@H]1CN(Cc2cccc(Oc3ccc(Cl)cc3)c2)CCN1C(=O)n1ccc(C(N)=O)n1` [Example 310, (R)-1-(4-(3-(4-chlorophenoxy)benzyl)-2-methylpiperazine-1-carbonyl)-1H-pyrazole-3-carboxamide], the inhibition at 1 µM in test [1] and in test [2] was above 75% each time.

Take `CC(C)(O)COc1cccc(O[C@H]2C[C@@H]3CN(C(=O)n4ccc(C(N)=O)n4)C[C@@H]3C2)c1Cl` [Example 452, 1-(trans-5-(2-chloro-3-(2-hydroxy-2-methylpropoxy)phenoxy)octahydro-cyclopenta[c]pyrrole-2-carbonyl)-1H-pyrazole-3-carboxamide]: the inhibition at 1 µM in test [1] and in test [2] was above 75% each time.

Turning to `O=C(O)c1ccn(C(=O)N2C[C@H]3CN(Cc4ccc(Cl)c(-c5nccs5)c4)C[C@H]3C2)n1` [Example 315, 1-((3aR,6aS)-5-(4-chloro-3-(thiazol-2-yl)benzyl)octa-hydropyrrolo[3,4-c]pyrrole-2-carbonyl)-1H-pyrazole-3-carboxylic acid], the inhibition at 1 µM in test [1] and in test [2] was above 75% throughout.
